Experimental data as given in patent US6964949B2, “Pharmaceutical compositions for promoting the growth of gram-positive bacilli and increasing the acidity in the vagina and the use thereof” (Shanghai Jiao Da Onlly Co., Ltd., priority 2000, dated 2005).

Tests used:
Assay type in all cases: cell-based
[1] = tested on: Gram-negative bacilli; assay: Experiment Example 3: 2.5% maltose or sucrose, specimen culture, Gram smear; details: 2.5% saccharide, 1.0% yeast extract, 1.6% xanthan gum, pH 6.2, candle jar, 37° C.
Description: (§1) • (1) The preparation of the compositions: Maltose and sucrose were used respectively to prepare the following composition according to the methods mentioned above: • A. 2.5% maltose, 1.0% yeast extract, 1.6% xanthan gum, pH adjusted to 6.2; • B. 2.5% sucrose, 1.0 yeast extract, 1.6% xanthan gum, pH adjusted to 6.2; • (2) The preparation of the test tubes: Compositions as prepared above were filled into the test tubes, with each tube containing 5 ml, sterilized, and kept until use for experiment. • (3) Specimen suspension: Vaginal secretion was taken from one of the patients suffering from typical bacterial vaginosis with a cotton swab, then the swab was washed in 2 ml sterilized Trypcase-soy Broth immediately, and thus the specimen suspension was ready. […] Then the tubes were placed in a candle jar and cultivated at 37° C. After 24 hours and 48 hours' culture, culture samples were taken respectively from each of the tubes, then the Gram smears of the samples were observed and the pH values of culture samples were tested.

[2] = tested on: Gram-negative bacilli; assay: Experiment Example 4: 17.0% maltose or sucrose, specimen culture, Gram smear; details: 17.0% saccharide, 1.0% yeast extract, 1.6% xanthan gum, pH 6.2, candle jar, 37° C.
Description: as §1, with “• (1)The” for “• (1) The”, “composition in” for “composition according to”, “A. 17.0%” for “A. 2.5%”, “B. 17.0%” for “B. 2.5%”, “sucrose, 1.0%” for “sucrose, 1.0”, “Compositions” for “Compositions as”

[3] = tested on: Gram-positive cocci; assay: as above; details: 17.0% saccharide, 1.0% yeast extract, 1.6% xanthan gum, pH 6.2, candle jar, 37° C.
Description: as §1, with “• (1)The” for “• (1) The”, “composition in” for “composition according to”, “A. 17.0%” for “A. 2.5%”, “B. 17.0%” for “B. 2.5%”, “sucrose, 1.0%” for “sucrose, 1.0”, “Compositions” for “Compositions as”

[4] = tested on: Gram-positive bacilli; assay: as above; details: 17.0% saccharide, 1.0% yeast extract, 1.6% xanthan gum, pH 6.2, candle jar, 37° C.
Description: as §1, with “• (1)The” for “• (1) The”, “composition in” for “composition according to”, “A. 17.0%” for “A. 2.5%”, “B. 17.0%” for “B. 2.5%”, “sucrose, 1.0%” for “sucrose, 1.0”, “Compositions” for “Compositions as”

[5] = tested on: Gram-negative cocci; assay: as above; details: 17.0% saccharide, 1.0% yeast extract, 1.6% xanthan gum, pH 6.2, candle jar, 37° C.
Description: as §1, with “• (1)The” for “• (1) The”, “composition in” for “composition according to”, “A. 17.0%” for “A. 2.5%”, “B. 17.0%” for “B. 2.5%”, “sucrose, 1.0%” for “sucrose, 1.0”, “Compositions” for “Compositions as”

[6] = tested on: Gram-negative bacilli; assay: Experiment Example 2: comparison of saccharides, specimen culture, Gram smear; details: 10.0% saccharide, 1.0% yeast extract, 1.6% xanthan gum (dextrin 0.5%, starch none), pH 6.2, candle jar, 37° C.
Source text: (§2) • (1)The preparation of the compositions: Different saccharides were used respectively to prepare the following compositions according to the methods mentioned above: glucose, fructose, galactose, mannose, maltose, sucrose, lactose, lactulose, mycose, cellobiose, melibiose, melitose, malto-oligosaccharide, isomaltooligosaccharide and fructooligosaccharide, dextrin, starch, and glycogen: • A. 5% glucose, 1.0% yeast extract, 1.6% xanthan gum, pH adjusted to 6.2; • B. 5% fructose, 1.0% yeast extract, 1.6% xanthan gum, pH adjusted to 6.2; • C. 5% galactose, 1.0% yeast extract, 1.6% xanthan gum, pH adjusted to 6.2; • D. 5% mannose, 1.0% yeast extract, 1.6% xanthan gum, pH adjusted to 6.2; • E. 10.0% maltose, 1.0% yeast extract, 1.6% xanthan gum, pH adjusted to 6.2; • F. 10.0% sucrose, 1.0% yeast extract, 1.6% xanthan gum, pH adjusted to 6.2; • G. 10.0% lactose, 1.0% yeast extract, 1.6% xanthan gum, pH adjusted to 6.2; • H. 10.0% lactulose, 1.0% yeast extract, 1.6% xanthan gum, pH adjusted to 6.2; • I. 10.0% cellobiose, 1.0% yeast extract, 1.6% xanthan gum, pH adjusted to 6.2; • J. 10.0% mycose, 1.0% yeast extract, 1.6% xanthan gum, pH adjusted to 6.2; • K. 10.0% melibiose, 1.0% yeast extract, 1.6% xanthan gum, pH adjusted to 6.2; • L. 10.0% melitose, 1.0% yeast extract, 1.6% xanthan gum, pH adjusted to 6.2; • M. 10.0% maltooligosaccharide, 1.0% yeast extract, 1.6% xanthan gum, pH adjusted to 6.2; • N. 10.0% isomaltooligosaccharide, 1.0% yeast extract, 1.6% xanthan gum, pH adjusted to 6.2; • O. 10.0% fructooligosaccharide, 1.0% yeast extract, 1.6% xanthan gum, pH adjusted to 6.2; • P. 10.0% dextrin, 1.0% yeast extract, 0.5% xanthan gum, pH adjusted to 6.2; • Q. 10.0% starch, 1.0% yeast extract, pH adjusted to 6.2; • R. 10.0% glycogen, 1.0% yeast extract, 1.6% xanthan gum, pH adjusted to 6.2. • (2)The preparation of the test tubes: The compositions prepared above were filled into test tubes, with each tube containing 5 ml, sterilized, and kept until use for experiment. • (3) Specimen suspension: Vaginal secretion was taken from one of the patients suffering from typical bacterial vagmosis with a cotton swab, then the swab was washed in 2 ml sterilized Trypcase-soy Broth immediately, and thus the specimen suspension was ready. […] Then the tubes were placed in a candle jar and cultivated at 37° C. After 24 hours and 48 hours' culture, culture samples were taken respectively from each of the tubes, then the Gram smears of the samples were observed and the pH values of culture samples were tested. […] Meanwhile the pH values in most of the composition tubes decreased to different levels. […] And maltose and sucrose exert better effect in promoting the growth of Gram-positive bacilli and the production of acids than that of the other kinds of oligosaccharides.

[7] = tested on: Gram-positive cocci; assay: as above; details: 10.0% saccharide, 1.0% yeast extract, 1.6% xanthan gum (dextrin 0.5%, starch none), pH 6.2, candle jar, 37° C.
Source text: as §2

[8] = tested on: Gram-positive bacilli; assay: as above; details: 10.0% saccharide, 1.0% yeast extract, 1.6% xanthan gum (dextrin 0.5%, starch none), pH 6.2, candle jar, 37° C.
Source text: as §2

[9] = tested on: Gram-negative cocci; assay: as above; details: 10.0% saccharide, 1.0% yeast extract, 1.6% xanthan gum (dextrin 0.5%, starch none), pH 6.2, candle jar, 37° C.
Source text: as §2

[10] = tested on: vaginal secretion specimen of a patient suffering from typical bacterial vaginosis; assay: Experiment Example 3: pH of culture samples (production of acids); details: 2.5% saccharide, 1.0% yeast extract, 1.6% xanthan gum, pH 6.2, candle jar, 37° C.
Description: as §1

[11] = tested on: vaginal secretion specimen of a patient suffering from typical bacterial vaginosis; assay: Experiment Example 2: pH of culture samples (production of acids); details: for pH values in the tube compared with the other tubes: 10% saccharide tube, after 24 or 48 hours culture; for pH, 24 hours-culture / pH, 48 hours-culture: 10.0% saccharide, 1.0% yeast extract, 1.6% xanthan gum (dextrin 0.5%, starch none), pH 6.2, candle jar, 37° C.
Source text: as §2

Row | SMILES | Bacteria G − b (Gram-negative bacilli), 24 hours-culture [1] | Bacteria G − b (Gram-negative bacilli), 48 hours-culture [1] | Bacteria G − b (Gram-negative bacilli), 48 hours culture [2] | Bacteria G + c (Gram-positive cocci), 24 hours culture [3] | Bacteria G + c (Gram-positive cocci), 48 hours culture [3] | Bacteria G + b (Gram-positive bacilli), 24 hours culture [4] | Bacteria G + b (Gram-positive bacilli), 48 hours culture [4] | Bacteria G − c (Gram-negative cocci), 24 hours culture [5] | Bacteria G − c (Gram-negative cocci), 48 hours culture [5] | Bacteria G − b (Gram-negative bacilli), 24 hours-culture [6] | Bacteria G − b (Gram-negative bacilli), 48 hours-culture [6] | Bacteria G + c (Gram-positive cocci), 24 hours-culture [7] | Bacteria G + c (Gram-positive cocci), 48 hours-culture [7] | Bacteria G + b (Gram-positive bacilli), 48 hours-culture [8] | Bacteria G − c (Gram-negative cocci), 24 hours-culture [9] | Bacteria G − c (Gram-negative cocci), 48 hours-culture [9] | pH, 24 hours-culture [10] | pH, 48 hours-culture [10] | pH values in the tube compared with the other tubes [11] | pH, 24 hours-culture [11] | also measured
1 | OC[C@H]1O[C@@](CO)(O[C@H]2O[C@H](CO)[C@@H](O)[C@H](O)[C@H]2O)[C@@H](O)[C@@H]1O [Sucrose, sucrose] | G − b, + (1-9 bacteria per field of vision under oil-immersion lens) | G − b, ++ (About 10-99 bacteria per field of vision under oil-immersion lens) | G − b, ++ (About 10-99 bacteria per field of vision under oil-immersion lens) | G + c, + (1-9 bacteria per field of vision under oil-immersion lens) | G + c, ++ (About 10-99 bacteria per field of vision under oil-immersion lens) | G + b, ++ (About 10-99 bacteria per field of vision under oil-immersion lens) | G + b, ++ (About 10-99 bacteria per field of vision under oil-immersion lens) | G − c, − (No or less than one bacterium per field of version under oil-immersion lens) | G − c, − (No or less than one bacterium per field of version under oil-immersion lens) | G − b, + (1-9 bacteria per field of vision under oil-immersion lens) | G − b, ++ (About 10-99 bacteria per field of vision under oil-immersion lens) | G + c, + (1-9 bacteria per field of vision under oil-immersion lens) | G + c, + (1-9 bacteria per field of vision under oil-immersion lens) | G + b, +++ (About 100 bacteria or more per field vision under oil-immersion lens, even uncountable) | G − c, − (No or less than one bacterium per field of version under oil-immersion lens) | G − c, − (No or less than one bacterium per field of version under oil-immersion lens) | 6.2 | 6.7 | lower than that of the other tubes | 4.8-5.1 | pH, 48 hours-culture [11]: 4.6-4.8
2 | OC[C@H]1O[C@H](O[C@H]2[C@H](O)[C@@H](O)[C@H](O)O[C@@H]2CO)[C@H](O)[C@@H](O)[C@@H]1O [Maltose, maltose] | G − b, +++ (About 100 bacteria or more per field vision under oil-immersion lens, even uncountable) | G − b, + (1-9 bacteria per field of vision under oil-immersion lens) | G − b, ++ (About 10-99 bacteria per field of vision under oil-immersion lens) | G + c, + (1-9 bacteria per field of vision under oil-immersion lens) | G + c, ++ (About 10-99 bacteria per field of vision under oil-immersion lens) | G + b, +++ (About 100 bacteria or more per field vision under oil-immersion lens, even uncountable) | G + b, ++ (About 10-99 bacteria per field of vision under oil-immersion lens) | G − c, − (No or less than one bacterium per field of version under oil-immersion lens) | G − c, − (No or less than one bacterium per field of version under oil-immersion lens) | G − b, +++ (About 100 bacteria or more per field vision under oil-immersion lens, even uncountable) | G − b, ++ (About 10-99 bacteria per field of vision under oil-immersion lens) | G + c, ++ (About 10-99 bacteria per field of vision under oil-immersion lens) | G + c, + (1-9 bacteria per field of vision under oil-immersion lens) | G + b, +++ (About 100 bacteria or more per field vision under oil-immersion lens, even uncountable) | G − c, − (No or less than one bacterium per field of version under oil-immersion lens) | G − c, − (No or less than one bacterium per field of version under oil-immersion lens) | 7.0 | 6.4 | lower than that of the other tubes | 4.6-48 | Bacteria G − b (Gram-negative bacilli), 24 hours culture ([2]; 24 hours): G − b, + (1-9 bacteria per field of vision under oil-immersion lens); Bacteria G + b (Gram-positive bacilli), 24 hours-culture ([8]; 24 hours): G + b, ++ (About 10-99 bacteria per field of vision under oil-immersion lens); pH, 48 hours-culture [11]: 4.4-4.6
